According to the NIST ThermoML archive (doi:10.1021/acs.jced.8b00037):
Numbers after ± are expanded uncertainties.

Assay: molar heat capacity at saturation pressure
Details: Liquid, Vacuum adiabatic calorimetry

COC [dimethyl ether]
Details	molar heat capacity [J/K/mol]
133.47 K	99.41 ± 0.73
136.11 K	98.99 ± 0.72
138.75 K	99.09 ± 0.73
141.37 K	98.75 ± 0.72
143.97 K	98.64 ± 0.72
146.56 K	98.99 ± 0.72
149.14 K	99.23 ± 0.73
151.7 K	98.99 ± 0.72
154.26 K	98.77 ± 0.72
156.8 K	98.65 ± 0.72
159.33 K	98.43 ± 0.72
161.84 K	98.67 ± 0.72
164.35 K	98.6 ± 0.72
166.84 K	98.46 ± 0.72
169.32 K	98.32 ± 0.72
171.79 K	98.39 ± 0.72
174.26 K	98.44 ± 0.72
176.71 K	98.47 ± 0.72
179.15 K	98.73 ± 0.72
181.58 K	98.78 ± 0.72
184 K	98.54 ± 0.72
186.41 K	98.8 ± 0.72
188.82 K	98.98 ± 0.72
191.21 K	98.9 ± 0.72
193.6 K	99.11 ± 0.73
195.98 K	98.99 ± 0.72
198.36 K	99.02 ± 0.72
200.73 K	99.09 ± 0.73
203.08 K	99.08 ± 0.73
205.44 K	99.32 ± 0.73
207.79 K	99.89 ± 0.73
210.13 K	100.15 ± 0.73
212.46 K	99.96 ± 0.73
214.79 K	100.15 ± 0.73
217.12 K	100.26 ± 0.73
219.43 K	100.09 ± 0.73
221.74 K	100.12 ± 0.73
224.04 K	100.21 ± 0.73
226.34 K	100.65 ± 0.74
228.64 K	101.1 ± 0.74
230.92 K	101.1 ± 0.74
233.21 K	101.41 ± 0.74
235.49 K	101.75 ± 0.74
237.76 K	101.68 ± 0.74
240.03 K	101.94 ± 0.74
242.31 K	102.15 ± 0.75
244.57 K	102.6 ± 0.75
246.84 K	102.48 ± 0.75
249.11 K	103.29 ± 0.75
251.38 K	102.81 ± 0.75
253.64 K	103 ± 0.75
255.9 K	103.44 ± 0.76
258.16 K	103.81 ± 0.76
260.42 K	104.08 ± 0.76
262.68 K	104.75 ± 0.76
264.94 K	105.51 ± 0.77
267.2 K	105.91 ± 0.77
269.47 K	106.42 ± 0.78
271.72 K	106.14 ± 0.77
273.98 K	106.27 ± 0.77
276.24 K	107.11 ± 0.78
278.5 K	108 ± 0.79
280.77 K	108.08 ± 0.79
283.02 K	108.35 ± 0.79
285.29 K	108.89 ± 0.79
287.55 K	109.42 ± 0.8
289.82 K	109.46 ± 0.8
292.08 K	110 ± 0.8
294.36 K	110.71 ± 0.81
296.63 K	110.49 ± 0.8
298.9 K	111.38 ± 0.81
301.19 K	111.57 ± 0.81
303.45 K	112.35 ± 0.82
305.74 K	112.73 ± 0.82
308.02 K	113.5 ± 0.83
310.3 K	114.89 ± 0.83
312.58 K	115.6 ± 0.84
314.87 K	116.12 ± 0.84
317.16 K	116.12 ± 0.84
319.44 K	117.62 ± 0.85
323.96 K	119.09 ± 0.86
326.26 K	120.03 ± 0.87
328.57 K	120.51 ± 0.87
330.88 K	121.43 ± 0.88
333.2 K	121.96 ± 0.88
335.54 K	122.78 ± 0.89
337.89 K	122.8 ± 0.89
340.24 K	124.08 ± 0.9
342.62 K	124.9 ± 0.9
345 K	125.19 ± 0.91
